# According to patent US20150183802A1, “TRICYCLIC SULFONAMIDE DERIVATIVES” (NOVARTIS AG, priority 2013, published 2015):
# pIC50: −log10 of the molar value.
# Target: T1, hNav1.7 channels (Homo sapiens, UniProt Q15858)
# T1 construct: host or cells: HEK293
# Test: hNav1.7 channel in vitro patch-clamp assay
# Format: cell-based
# Details: stable HEK293 cell line expressing hNav1.7; whole cell patch-clamp (QPatch HTX and/or conventional), room temperature; voltage protocol not given
# Description: hNav1.7 Channel In Vitro Patch-Clamp Assay
# Cells: Sable HEK293 (human embryonic kidney) cell line expressing hNav1.7 channels was used in the assay. The cell line was obtained from Millipore (Millipore Corporation, MA).
# Patch-clamp recordings: The recordings were performed on QPatch HTX (Sophion Bioscience, Denmark) and/or conventional patch-clamp (Axon Multiclamp 700B systems, Molecular Devices, CA) platforms at room temperature, using whole cell patch-clamp techniques. The composition of extracellular solution was (in mM): HEPES 5, NaCl 40, KCl 3, CaCl2 1, MgCl2 1, Choline Chloride 100. Adjust pH to 7.2 with 1N NaOH, osmolarity to 300-310 mOsm with sucrose. The composition of intracellular solution was (in mM): HEPES 10, NaCl 10, Na2ATP 1, MgCl2 2, KF 135, EGTA 10. Adjust pH to 7.2 with 1N NaOH, osmolarity to 290-300 mOsm with sucrose.
# For conventional patch-clamp, 35 mm culture dishes containing hNav1.7 cells were placed on the stage of an inverted microscope and continuously perfused with extracellular solution from a perfusion system (Biologic Rapid solution changer, RSC-160, ˜1 ml/min). […] The recordings were controlled by pCLAMP10 software. Test compounds were dissolved in 100% DMSO to make stock solutions for each test concentration, and then diluted into extracellular solution to achieve final concentration for testing. Final DMSO concentration was less than 0.3%. Two voltage protocols were used in hNav1.7 assay: for non-inactivated protocol, the sodium currents were elicited by a 2 ms pulse to −10 mV from a holding potential of −110 mV. For inactivated protocol, the holding potential was set at V1/2. The voltage was firstly stepped to −110 mV for 50 ms, then to −10 mV for 2 ms and then stepped back to holding potential. In both protocols the voltage command was given in every 10 s. Compound effect (% inhibition) was determined by difference in current amplitude before and after the application of test compounds. IC50 values were determined from concentration-response curves that were obtained with Hill fitting.
# For QPatch HTX assay, hNav1.7 cells grown to 50%-80% confluence were rinsed with DPBS and dissociated with Tryple (Invitrogen, 12605-010). The dissociated cells were then mixed with extracellular solution. After centrifuge, the cells were resuspended in extracellular solution and used in the QPatch experiment. The whole-cell protocols, voltage protocols and application protocols were established with QPatch Assay Software 3.4 (Sophion Bioscience, Denmark). Only the inactivated protocol was used in the QPatch assay.
# T1 sequence (Q15858 whole entry): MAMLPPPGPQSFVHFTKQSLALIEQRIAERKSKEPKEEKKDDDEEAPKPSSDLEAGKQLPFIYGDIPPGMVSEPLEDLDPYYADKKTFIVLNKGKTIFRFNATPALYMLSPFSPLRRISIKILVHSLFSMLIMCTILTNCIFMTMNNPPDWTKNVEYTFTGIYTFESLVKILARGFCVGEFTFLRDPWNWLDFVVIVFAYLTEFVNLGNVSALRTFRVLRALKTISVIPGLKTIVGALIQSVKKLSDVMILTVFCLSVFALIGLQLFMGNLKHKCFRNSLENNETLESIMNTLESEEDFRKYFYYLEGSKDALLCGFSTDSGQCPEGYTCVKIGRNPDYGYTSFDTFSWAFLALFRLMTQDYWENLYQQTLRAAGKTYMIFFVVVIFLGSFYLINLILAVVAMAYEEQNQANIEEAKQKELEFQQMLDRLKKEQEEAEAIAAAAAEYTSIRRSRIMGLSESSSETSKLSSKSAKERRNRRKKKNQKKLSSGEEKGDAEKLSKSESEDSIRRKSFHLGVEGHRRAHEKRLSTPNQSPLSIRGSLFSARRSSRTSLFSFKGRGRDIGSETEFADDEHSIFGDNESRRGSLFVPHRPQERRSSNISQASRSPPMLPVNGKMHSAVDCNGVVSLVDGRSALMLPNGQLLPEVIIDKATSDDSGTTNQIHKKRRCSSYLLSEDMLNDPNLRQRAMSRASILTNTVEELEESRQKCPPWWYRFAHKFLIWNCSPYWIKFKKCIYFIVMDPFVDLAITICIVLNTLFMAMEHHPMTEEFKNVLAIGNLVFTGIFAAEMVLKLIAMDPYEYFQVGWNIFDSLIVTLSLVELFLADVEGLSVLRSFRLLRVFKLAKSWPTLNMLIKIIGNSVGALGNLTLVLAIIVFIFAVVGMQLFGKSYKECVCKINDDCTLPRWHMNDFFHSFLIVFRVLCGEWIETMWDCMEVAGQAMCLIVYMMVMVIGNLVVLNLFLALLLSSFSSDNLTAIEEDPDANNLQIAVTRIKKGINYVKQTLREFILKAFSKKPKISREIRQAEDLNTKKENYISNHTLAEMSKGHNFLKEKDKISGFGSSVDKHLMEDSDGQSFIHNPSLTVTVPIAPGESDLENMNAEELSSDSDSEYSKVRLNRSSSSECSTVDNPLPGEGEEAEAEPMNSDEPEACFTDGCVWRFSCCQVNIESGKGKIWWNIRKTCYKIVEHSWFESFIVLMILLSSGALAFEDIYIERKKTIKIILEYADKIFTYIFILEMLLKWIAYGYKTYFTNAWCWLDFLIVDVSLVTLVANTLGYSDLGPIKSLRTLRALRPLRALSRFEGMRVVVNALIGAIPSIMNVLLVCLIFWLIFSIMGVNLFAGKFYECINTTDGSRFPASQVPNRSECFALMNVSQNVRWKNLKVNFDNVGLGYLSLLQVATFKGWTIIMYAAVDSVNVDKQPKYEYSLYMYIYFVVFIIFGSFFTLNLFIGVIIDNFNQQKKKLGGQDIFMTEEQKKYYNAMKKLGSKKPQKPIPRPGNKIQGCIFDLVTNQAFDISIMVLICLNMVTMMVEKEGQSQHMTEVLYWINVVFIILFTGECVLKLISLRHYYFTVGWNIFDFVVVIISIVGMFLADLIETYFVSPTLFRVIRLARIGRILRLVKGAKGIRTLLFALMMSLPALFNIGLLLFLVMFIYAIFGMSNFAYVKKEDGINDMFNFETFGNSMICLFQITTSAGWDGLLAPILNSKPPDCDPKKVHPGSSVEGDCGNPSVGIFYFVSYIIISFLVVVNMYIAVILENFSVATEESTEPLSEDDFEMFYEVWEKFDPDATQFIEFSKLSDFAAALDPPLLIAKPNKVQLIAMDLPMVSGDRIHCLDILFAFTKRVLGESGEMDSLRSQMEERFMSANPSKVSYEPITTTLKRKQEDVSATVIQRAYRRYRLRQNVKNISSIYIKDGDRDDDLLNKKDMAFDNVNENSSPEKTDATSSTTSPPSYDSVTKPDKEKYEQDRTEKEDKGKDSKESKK
row,SMILES,pIC50
1,O=S(=O)(Nc1noc2cc3c(-c4ccc(Cl)c(Cl)c4)nccc3cc12)C1CC1 [Example 52],6.10
2,"CS(=O)(=O)Nc1noc2cc3c(cc12)C1(CC1)C(=O)N3c1cnc(OCC2CCC(F)(F)CC2)c(Cl)c1 [Example 13, N-(7′-(5-chloro-6-((4,4-difluorocyclohexyl)methoxy)pyridin-3-yl)-6′-oxo-6′,7′-dihydrospiro[cyclopropane-1,5′-isoxazolo[4,5-f]indol]-3′-yl)methanesulfonamide]",6.52
3,"CC(C)COc1ncc(N2C(=O)C3(CC3)c3cc4c(NS(=O)(=O)c5cccs5)noc4cc32)cc1Cl [Example 7, N-(7′-(5-chloro-6-isobutoxypyridin-3-yl)-6′-oxo-6′,7′-dihydrospiro[cyclopropane-1,5′-isoxazolo[4,5-f]indol]-3′-yl)thiophene-2-sulfonamide]",6.30
4,"CC(C)COc1ncc(-c2cncc3cc4c(NS(C)(=O)=O)noc4cc23)cc1Cl [Example 57, N-(8-(5-chloro-6-isobutoxypyridin-3-yl)isoxazolo[5,4-g]isoquinolin-3-yl)methanesulfonamide]",5.63
5,"CC(C)COc1ncc(N2C(=O)C3(CCCCC3)c3cc4c(NS(=O)(=O)C5CC5)noc4cc32)cc1Cl [Example 39, N-(7′-(5-chloro-6-isobutoxypyridin-3-yl)-6′-oxo-6′,7′-dihydrospiro[cyclohexane-1,5′-isoxazolo[4,5-f]indol]-3′-yl)cyclopropanesulfonamide]",6.15
6,"Cc1cn(-c2cnc(OCC(C)C)c(Cl)c2)c2cc3onc(NS(=O)(=O)C4CC4)c3cc12 [Example 42, N-(7-(5-chloro-6-isobutoxypyridin-3-yl)-5-methyl-7H-isoxazolo[4,54]indol-3-yl)cyclopropanesulfonamide]",7.15
7,"CC1(COc2ncc(N3C(=O)C4(CC4)c4cc5c(NS(=O)(=O)C6CC6)noc5cc43)cc2Cl)CC1 [Example 16, N-(7′-(5-chloro-6-((1-methylcyclopropyl)methoxy)pyridin-3-yl)-6′-oxo-6′,7′-dihydrospiro[cyclopropane-1,5′-isoxazolo[4,5-f]indol]-3′-yl)cyclopropanesulfonamide]",7.22
8,"CC(C)COc1ncc(N2C(=O)C3(CC3)c3cc4c(NS(=O)(=O)c5ccccc5)noc4cc32)cc1Cl [Example 6, N-(7′-(5-chloro-6-isobutoxypyridin-3-yl)-6′-oxo-6′,7′-dihydrospiro[cyclopropane-1,5′-isoxazolo[4,5-f]indol]-3′-yl)benzenesulfonamide]",5.52
9,"CC(C)COc1ncc(N2C(=O)C3(CC3)c3cc4c(NS(=O)(=O)C(C)C)noc4cc32)cc1Cl [Example 3, N-(7′-(5-chloro-6-isobutoxypyridin-3-yl)-6′-oxo-6′,7′-dihydrospiro[cyclopropane-1,5′-isoxazolo[4,5-f]indol]-3′-yl)propane-2-sulfonamide]",7.00
10,"CC(C)COc1ncc(N2C(=O)C3(CC3)c3cc4c(NS(N)(=O)=O)noc4cc32)cc1Cl [Example 8, N-(7′-(5-chloro-6-isobutoxypyridin-3-yl)-6′-oxo-6′,7′-dihydrospiro[cyclopropane-1,5′-isoxazolo[4,5-f]indol]-3′-yl)aminosulfonamide]",5.70
11,"O=C1N(c2cnc(OC3CCCCC3)c(Cl)c2)c2cc3onc(NS(=O)(=O)C4CC4)c3cc2C12CC2 [Example 26, N-(7′-(5-chloro-6-(cyclohexyloxy)pyridin-3-yl)-6′-oxo-6′,7′-dihydrospiro[cyclopropane-1,5′-isoxazolo[4,5-f]indol]-3′-yl)cyclopropanesulfonamide]",6.96
12,"CC(C)COc1ncc(-c2cccc3cc4c(NS(=O)(=O)C5CC5)noc4cc23)cc1Cl [Example 58, N-(8-(5-chloro-6-isobutoxypyridin-3-yl)naphtho[2,3-d]isoxazol-3-yl)cyclopropanesulfonamide]",8.00
13,"Cc1nn(-c2ccc(Cl)c(Cl)c2)c2cc3onc(NS(=O)(=O)C4CC4)c3cc12 [Example 46, N-(7-(3,4-dichlorophenyl)-5-methyl-7H-isoxazolo[4,5-f]indazol-3-yl)cyclopropanesulfonamide]",7.00
14,"CC(C)COc1c(Cl)cc(N2C(=O)C3(CC3)c3cc4c(NS(C)(=O)=O)noc4cc32)cc1C#N [Example 32, N-(7′-(3-chloro-5-cyano-4-isobutoxyphenyl)-6′-oxo-6′,7′-dihydrospiro[cyclopropane-1,5′-isoxazolo[4,5-f]indol]-3′-yl)methanesulfonamide]",6.05
15,"O=C1N(c2cnc(OCC3CCCC3)c(Cl)c2)c2cc3onc(NS(=O)(=O)C4CC4)c3cc2C12CC2 [Example 27, N-(7′-(5-chloro-6-(cyclopentylmethoxy)pyridin-3-yl)-6′-oxo-6′,7′-dihydrospiro[cyclopropane-1,5′-isoxazolo[4,5-f]indol]-3′-yl)cyclopropanesulfonamide]",7.05
16,"CS(=O)(=O)Nc1noc2cc3c(cc12)C1(CC1)C(=O)N3c1cnc(OCC2CCC(C(F)(F)F)CC2)c(Cl)c1 (stereo not shown) [Example 14, N-(7′-(5-chloro-6-((4-(trifluoromethyl)cyclohexyl)methoxy)pyridin-3-yl)-6′-oxo-6′,7′-dihydrospiro[cyclopropane-1,5′-isoxazolo[4,5-f]indol]-3′-yl)methanesulfonamide]",6.70
17,"CC(C)COc1ncc(-c2nccc3cc4c(NS(C)(=O)=O)noc4cc23)cc1Cl [Example 51, N-(8-(5-chloro-6-isobutoxypyridin-3-yl)isoxazolo[4,5-g]isoquinolin-3-yl)methanesulfonamide]",6.52
18,"CC1(COc2ncc(N3C(=O)C4(CC4)c4cc5c(NS(C)(=O)=O)noc5cc43)cc2Cl)CC1 [Example 15, N-(7′-(5-chloro-6-((1-methylcyclopropyl)methoxy)pyridin-3-yl)-6′-oxo-6′,7′-dihydrospiro[cyclopropane-1,5′-isoxazolo[4,5-f]indol]-3′-yl) methanesulfonamide]",7.15
19,"CC(C)COc1ncc(-n2cc(C#N)c3cc4c(NS(=O)(=O)C5CC5)noc4cc32)cc1Cl [Example 48, N-(7-(5-chloro-6-isobutoxypyridin-3-yl)-5-cyano-7H-isoxazolo[4,54]indol-3-yl)cyclopropanesulfonamide]",6.66
20,"CS(=O)(=O)Nc1noc2cc3c(cc12)C1(CC1)C(=O)N3c1cnc(OCC2CCOCC2)c(Cl)c1 [Example 12, N-(7′-(5-chloro-6-((tetrahydro-2H-pyran-4-yl)methoxy)pyridin-3-yl)-6′-oxo-6′,7′-dihydrospiro[cyclopropane-1,5′-isoxazolo[4,5-f]indol]-3′-yl)methanesulfonamide]",5.70
21,"O=C1N(c2cnc(OCCCC(F)(F)F)c(Cl)c2)c2cc3onc(NS(=O)(=O)C4CC4)c3cc2C12CC2 [Example 17, N-(7′-(5-chloro-6-(4,4,4-trifluorobutoxyl)pyridin-3-yl)-6′-oxo-6′,7′-dihydrospiro[cyclopropane-1,5′-isoxazolo[4,5-f]indol]-3′-yl)cyclopropanesulfonamide]",6.70
22,"CC(C)COc1ncc(-n2c(C(F)(F)F)cc3cc4c(NS(C)(=O)=O)noc4cc32)cc1Cl [Example 40b, N-(7-(5-chloro-6-isobutoxypyridin-3-yl)-6-(trifluoromethyl)-7H-isoxazolo[4,5-f]indol-3-yl)methanesulfonamide]",7.40
23,"CC(C)COc1ncc(N2C(=O)C3(CCCC3)c3cc4c(NS(=O)(=O)C5CC5)noc4cc32)cc1Cl [Example 38, N-(7′-(5-chloro-6-isobutoxypyridin-3-yl)-6′-oxo-6′,7′-dihydrospiro[cyclopentane-1,5′-isoxazolo[4,5-f]indol]-3′-yl)cyclopropanesulfonamide]",6.30
24,"CC(C)COc1ncc(N2C(=O)C3(CC3)c3cc4c(NS(=O)(=O)N5CCCC5)noc4cc32)cc1Cl [Example 10, N-(7′-(5-chloro-6-isobutoxypyridin-3-yl)-6′-oxo-6′,7′-dihydrospiro[cyclopropane-1,5′-isoxazolo[4,5-f]indol]-3′-yl)pyrrolidine-1-sulfonamide]",6.30
25,"CC(C)COc1ncc(-n2c(C(F)(F)F)nc3cc4c(NS(=O)(=O)C5CC5)noc4cc32)cc1Cl [Example 43, N-(7-(5-chloro-6-isobutoxypyridin-3-yl)-6-(trifluoromethyl)-7H-imidazo[4′,5′:4,5]benzo[1,2-d]isoxazol-3-yl)cyclopropanesulfonamide]",7.00
